Test results published in PubChem BioAssay (NCI).
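Grown in 96-well plates, cells were treated for 48 hours with each compound at five concentrations. Insufficient inhibition: endpoint recorded as highest concentration tested. GI50 marks 50% less growth. TGI: concentration producing complete growth inhibition.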

How the values were obtained:
Assay in all cases: NCI anticancer screen, dose series, 48 h
NCI-H460 lung = system: NCI-H460 lung
MCF7 breast = system: MCF7 breast
NCI/ADR-RES ovarian = system: NCI/ADR-RES ovarian
SK-MEL-5 melanoma = system: SK-MEL-5 melanoma
UACC-257 melanoma = system: UACC-257 melanoma
CAKI-1 renal = system: CAKI-1 renal
SK-OV-3 ovarian = system: SK-OV-3 ovarian
SF-295 CNS = system: SF-295 CNS
KM12 colon = system: KM12 colon
786-0 renal = system: 786-0 renal
MOLT-4 leukemia = system: MOLT-4 leukemia
K-562 leukemia = system: K-562 leukemia
RPMI-8226 leukemia = system: RPMI-8226 leukemia
SN12C renal = system: SN12C renal
SF-268 CNS = system: SF-268 CNS
UO-31 renal = system: UO-31 renal
RXF 393 renal = system: RXF 393 renal
SNB-19 CNS = system: SNB-19 CNS
A498 renal = system: A498 renal
HL-60(TB) leukemia = system: HL-60(TB) leukemia
CCRF-CEM leukemia = system: CCRF-CEM leukemia
NCI-H522 lung = system: NCI-H522 lung
COLO 205 colon = system: COLO 205 colon
T-47D breast = system: T-47D breast
U251 CNS = system: U251 CNS
MDA-MB-231 breast = system: MDA-MB-231 breast
PC-3 prostate = system: PC-3 prostate
SF-539 CNS = system: SF-539 CNS
OVCAR-5 ovarian = system: OVCAR-5 ovarian
MALME-3M melanoma = system: MALME-3M melanoma
MDA-MB-435 = system: MDA-MB-435
SW-620 colon = system: SW-620 colon
NCI-H23 lung = system: NCI-H23 lung
A549 NSCLC = system: A549 NSCLC
OVCAR-8 ovarian = system: OVCAR-8 ovarian
HS 578T breast = system: HS 578T breast
HOP-62 NSCLC = system: HOP-62 NSCLC
HCT-116 colon = system: HCT-116 colon
SK-MEL-28 melanoma = system: SK-MEL-28 melanoma
M14 melanoma = system: M14 melanoma
TK-10 renal = system: TK-10 renal
DU-145 prostate = system: DU-145 prostate
UACC-62 melanoma = system: UACC-62 melanoma
LOX IMVI melanoma = system: LOX IMVI melanoma
ACHN renal = system: ACHN renal
NCI-H226 lung = system: NCI-H226 lung
HT29 colon = system: HT29 colon
HCT-15 colon = system: HCT-15 colon
OVCAR-4 ovarian = system: OVCAR-4 ovarian
HOP-92 NSCLC = system: HOP-92 NSCLC
IGROV1 ovarian = system: IGROV1 ovarian
OVCAR-3 ovarian = system: OVCAR-3 ovarian
HCC-2998 colon = system: HCC-2998 colon
EKVX NSCLC = system: EKVX NSCLC
SK-MEL-2 melanoma = system: SK-MEL-2 melanoma
SR leukemia = system: SR leukemia
SNB-75 CNS = system: SNB-75 CNS

Compound: COc1ccc(Sc2nc3cc(N)cc(N)c3nc2-c2ccccc2)cc1
- GI50 (NCI-H460 lung): 20 µM
- TGI (NCI-H460 lung): > 100 µM
- GI50 (MCF7 breast): 16.5 µM
- TGI (MCF7 breast): > 100 µM
- GI50 (NCI/ADR-RES ovarian): > 100 µM
- TGI (NCI/ADR-RES ovarian): > 100 µM
- GI50 (SK-MEL-5 melanoma): 24 µM
- TGI (SK-MEL-5 melanoma): > 100 µM
- GI50 (UACC-257 melanoma): 43.2 µM
- TGI (UACC-257 melanoma): > 100 µM
- GI50 (CAKI-1 renal): 9.71 µM
- TGI (CAKI-1 renal): > 100 µM
- GI50 (SK-OV-3 ovarian): 32.9 µM
- TGI (SK-OV-3 ovarian): > 100 µM
- GI50 (SF-295 CNS): > 100 µM
- TGI (SF-295 CNS): > 100 µM
- GI50 (KM12 colon): 28.4 µM
- TGI (KM12 colon): > 100 µM
- GI50 (786-0 renal): 52.3 µM
- TGI (786-0 renal): > 100 µM
- GI50 (MOLT-4 leukemia): 4.19 µM
- TGI (MOLT-4 leukemia): > 100 µM
- GI50 (K-562 leukemia): 9.83 µM
- TGI (K-562 leukemia): > 100 µM
- GI50 (RPMI-8226 leukemia): 3.96 µM
- TGI (RPMI-8226 leukemia): 84.4 µM
- GI50 (SN12C renal): > 100 µM
- TGI (SN12C renal): > 100 µM
- GI50 (SF-268 CNS): > 100 µM
- TGI (SF-268 CNS): > 100 µM
- GI50 (UO-31 renal): > 100 µM
- TGI (UO-31 renal): > 100 µM
- GI50 (RXF 393 renal): > 100 µM
- TGI (RXF 393 renal): > 100 µM
- GI50 (SNB-19 CNS): > 100 µM
- TGI (SNB-19 CNS): > 100 µM
- GI50 (A498 renal): > 100 µM
- TGI (A498 renal): > 100 µM
- GI50 (HL-60(TB) leukemia): 4.25 µM
- TGI (HL-60(TB) leukemia): > 100 µM
- GI50 (CCRF-CEM leukemia): 2.28 µM
- TGI (CCRF-CEM leukemia): 8.36 µM
- GI50 (NCI-H522 lung): 3.2 µM
- TGI (NCI-H522 lung): > 100 µM
- GI50 (COLO 205 colon): 19.3 µM
- TGI (COLO 205 colon): > 100 µM
- GI50 (T-47D breast): > 100 µM
- TGI (T-47D breast): > 100 µM
- GI50 (U251 CNS): > 100 µM
- TGI (U251 CNS): > 100 µM
- GI50 (MDA-MB-231 breast): > 100 µM
- TGI (MDA-MB-231 breast): > 100 µM
- GI50 (PC-3 prostate): 6.39 µM
- TGI (PC-3 prostate): > 100 µM
- GI50 (SF-539 CNS): 10 µM
- TGI (SF-539 CNS): > 100 µM
- GI50 (OVCAR-5 ovarian): > 100 µM
- TGI (OVCAR-5 ovarian): > 100 µM
- GI50 (MALME-3M melanoma): 33.2 µM
- TGI (MALME-3M melanoma): 95 µM
- GI50 (MDA-MB-435): > 100 µM
- TGI (MDA-MB-435): > 100 µM
- GI50 (SW-620 colon): 26.5 µM
- TGI (SW-620 colon): > 100 µM
- GI50 (NCI-H23 lung): > 100 µM
- TGI (NCI-H23 lung): > 100 µM
- GI50 (A549 NSCLC): 42.4 µM
- TGI (A549 NSCLC): > 100 µM
- GI50 (OVCAR-8 ovarian): > 100 µM
- TGI (OVCAR-8 ovarian): > 100 µM
- GI50 (HS 578T breast): > 100 µM
- TGI (HS 578T breast): > 100 µM
- GI50 (HOP-62 NSCLC): > 100 µM
- TGI (HOP-62 NSCLC): > 100 µM
- GI50 (HCT-116 colon): 14.7 µM
- TGI (HCT-116 colon): > 100 µM
- GI50 (SK-MEL-28 melanoma): 24.4 µM
- TGI (SK-MEL-28 melanoma): > 100 µM
- GI50 (M14 melanoma): > 100 µM
- TGI (M14 melanoma): > 100 µM
- GI50 (TK-10 renal): 30.6 µM
- TGI (TK-10 renal): > 100 µM
- GI50 (DU-145 prostate): 14.5 µM
- TGI (DU-145 prostate): > 100 µM
- GI50 (UACC-62 melanoma): 38 µM
- TGI (UACC-62 melanoma): > 100 µM
- GI50 (LOX IMVI melanoma): 51 µM
- TGI (LOX IMVI melanoma): > 100 µM

Compound: COc1cc2c(cc1OCCCOS(C)(=O)=O)N=C[C@@H]1CCCN1C2=O
- TGI (ACHN renal): > 100 µM
- TGI (NCI-H460 lung): > 100 µM
- TGI (NCI-H226 lung): > 100 µM
- TGI (MCF7 breast): > 100 µM
- TGI (NCI/ADR-RES ovarian): > 100 µM
- TGI (SK-MEL-5 melanoma): > 100 µM
- TGI (UACC-257 melanoma): > 100 µM
- TGI (CAKI-1 renal): > 100 µM
- TGI (SK-OV-3 ovarian): > 100 µM
- TGI (HT29 colon): > 100 µM
- TGI (SF-295 CNS): > 100 µM
- TGI (KM12 colon): > 100 µM
- TGI (786-0 renal): > 100 µM
- TGI (MOLT-4 leukemia): > 100 µM
- TGI (RPMI-8226 leukemia): > 100 µM
- TGI (SN12C renal): > 100 µM
- TGI (HCT-15 colon): > 100 µM
- TGI (SF-268 CNS): > 100 µM
- TGI (UO-31 renal): > 100 µM
- TGI (RXF 393 renal): > 100 µM
- TGI (SNB-19 CNS): > 100 µM
- TGI (A498 renal): > 100 µM
- TGI (HL-60(TB) leukemia): > 100 µM
- GI50 (CCRF-CEM leukemia): 52.8 µM
- TGI (CCRF-CEM leukemia): > 100 µM
- TGI (NCI-H522 lung): > 100 µM
- TGI (COLO 205 colon): > 100 µM
- TGI (T-47D breast): > 100 µM
- TGI (U251 CNS): > 100 µM
- TGI (MDA-MB-231 breast): > 100 µM
- GI50 (OVCAR-4 ovarian): 70.4 µM
- TGI (OVCAR-4 ovarian): > 100 µM
- TGI (HOP-92 NSCLC): > 100 µM
- TGI (SF-539 CNS): > 100 µM
- TGI (MALME-3M melanoma): > 100 µM
- TGI (MDA-MB-435): > 100 µM
- TGI (IGROV1 ovarian): > 100 µM
- TGI (OVCAR-3 ovarian): > 100 µM
- TGI (HCC-2998 colon): > 100 µM
- TGI (SW-620 colon): > 100 µM
- TGI (EKVX NSCLC): > 100 µM
- TGI (NCI-H23 lung): > 100 µM
- TGI (SK-MEL-2 melanoma): > 100 µM
- TGI (A549 NSCLC): > 100 µM
- TGI (OVCAR-8 ovarian): > 100 µM
- GI50 (SR leukemia): 62.9 µM
- TGI (SR leukemia): > 100 µM
- TGI (HS 578T breast): > 100 µM
- TGI (HCT-116 colon): > 100 µM
- GI50 (SNB-75 CNS): 94.7 µM
- TGI (SNB-75 CNS): > 100 µM
- TGI (SK-MEL-28 melanoma): > 100 µM
- TGI (M14 melanoma): > 100 µM
- TGI (TK-10 renal): > 100 µM
- TGI (DU-145 prostate): > 100 µM
- TGI (UACC-62 melanoma): > 100 µM
- TGI (LOX IMVI melanoma): > 100 µM
